From US10562890B2, “Cancer therapeutics” (UNIVERSITY OF VIRGINIA PATENT FOUNDATION, priority 2014, dated 2020)
In brackets after ≈: the same amount, converted by molar mass. Like-named read-outs stand apart in the source and are kept apart here. Values belong to the compound of their own block, whether it stands above or below them.

What was measured:
[1] = target: CBFβ binding to the RUNX1 Runt domain (Homo sapiens (Human), UniProt Q13951); experiment: FRET assay, inhibition of CBFβ binding to the RUNX1 Runt domain; details: for IC50: inhibition of wild-type CBFβ binding to the RUNX1 Runt domain, NA = not active; for activity in FRET assay (structure-activity relationship, in words): relative to Al-4-57 or parent compounds
From the text: Fluorescence Resonance Energy Transfer (FRET) Assay:
As described in U.S. Pat. No. 8,748,618 and published PCT application WO2010/132684, a FRET assay can be used to effectively monitor the inhibition of CBF binding to the Runt domain of RUNX proteins (as well as for CBFβ-SMMHC binding to the Runt domain of RUNX proteins). For the assay, the green fluorescent protein derivative Cerulean is fused to the N-terminus of the Runt domain and the green fluorescent protein derivative Venus to the N-terminus of CBFβ (Gorczynski, M. J., J. Grembecka, et al. (2007), “Allosteric inhibition of the protein-protein interaction between the leukemia-associated proteins Runx1 and CBFbeta.” Chem Biol 14(10): 1186-97), or to CBFβ-SMMHC (Illendula, A. et al. Chemical biology. A small-molecule inhibitor of the aberrant transcription factor CBFbeta-SMMHC delays leukemia in mice. Science 347, 779-784, doi:10.1126/science.aaa0314 (2015)). The ratio of the emission intensities at 525 nm and 474 nm, measured after excitation at 433 nm, was used as the readout in this assay. The dynamic range for the FRET assay was determined by adding a 30-fold excess of untagged CBFβ (or CBFβ-SMMHC) to the assay and the associated change in the FRET ratio was defined as 100% inhibition.

[2] = system: 11 leukemia cell lines; experiment: Viability of a panel of 11 leukemia cell lines; assay type: cell-based; details: 48 hours of treatment
From the text: Compounds Al-4-88, Al-4-57, Al-10-47, Al-10-104, and Al-14-91 were screened against a panel of 11 leukemia cell lines with varying genotypes.
The viability is represented as the percent DAPI negative cells relative to DMSO control. Each symbol/color in the graphs of FIG. 4 represent an individual cell line. The symbol represents the mean of independent replicates and the error bars represent the SEM. The table indicates the morphology, type of leukemia, and known mutations for each of the 11 cell lines.

[3] = target: CBFβ-SMMHC binding to the RUNX1 Runt domain; details: U.S. Pat. No. 8,748,618; read-out: IC50, binding of CBF-SMMHC to the RUNX1 Runt domain; cited from earlier work
[4] = previous work, Illendula et al. Science 2015; cited from earlier work
[5] = system: T-ALL cell lines Jurkat, HBP-ALL, Loucy, and KOPTK1; experiment: Proliferation of T-ALL cell lines; assay type: cell-based, human
[6] = system: H520 lung cancer cells; experiment: MTT growth assay, H520 cells; assay type: cell-based; details: H520, 10 μM, 72 hrs
Procedure: (§1) Activity of Al-10-104 was tested using several lung cancer cell lines and one immortalized, non-transformed lung cell line. […] Data for the squamous cell carcinoma of the lung cell line H520 and the immortalized normal lung epithelial cell line BEAS-2B are shown in FIG. 10.
(§2) H520 cells were cultured in RPMI 1640 medium, supplemented with fetal bovine serum (10% final concentration), Hepes (1%), and sodium priruvate (1%). The MTT assay used 4×10^5/ml cells. BEAS-2B cells were cultured in DMEM medium with fetal bovine serum (10% final concentration). The MTT assay for the BEAS-2B cell line was performed using 3.5×10^5/ml cells.
(§3) Al-4-88 had no effect on either cell line.

[7] = system: BEAS-2B normal lung cells; experiment: MTT growth assay, BEAS-2B cells; assay type: cell-based; details: 10 μM, 72 hrs
Procedure: as §1, §2, §3

[8] = target: binding of CBFβ to RUNX1 in SEM cells (Homo sapiens (Human), UniProt Q13951); experiment: Co-immunoprecipitation of CBFβ with RUNX1 in SEM cells; assay type: cell-based; details: 10 μM, 6 hours
Procedure: To test whether the wild-type CBFβ Inhibitors can disrupt the binding of CBFβ to RUNX1 in cells, co-immunoprecipitation experiments were performed in the SEM cell line. Co-immunoprecipitation assays of lysates from […] SEM cells were treated with Al-4-88^1, Al-10-47, Al-10-104, Al-12-126 and Al-14-91 at 10 μM for 6 hours. RUNX1-bound CBFβ protein levels and immunoprecipitated RUNX1 are shown on the top panel of FIG. 2A. Quantification of RUNX1 bound CBFβ is shown on the bottom graph.

[9] = Aqueous solubility in 0.25% DMSO by NMR spectroscopy; assay type: physicochemical; details: kinetic from dmso stock
Procedure: Al-10-104, Al-12-126, and Al-14-91 were all soluble at concentrations above 100 μM. […] As the Runt domain is highly conserved among all three RUNX family members, we would expect to see similar effects on binding to RUNX2 or RUNX3. Therefore, the action of the inhibitors will likely affect the activity of all three RUNX family members.

[10] = system: MLL-AF4 leukemia cells; experiment: Cell death of MLL-AF4 leukemia cells; assay type: cell-based, human
[11] = Sedative effects and tolerability in mice after IP administration; assay type: in vivo; details: HCl salts with Captisol, IP at 100 mg/kg
From the text: “NA” indicates not active. […] Reasoning that this effect depended on the ability of the compound to cross the blood brain barrier (BBB), compounds Al-12-126 and Al-14-91 have appended morpholine ring substituents to the 5 position of the pyridine ring to increase the polarity of the compounds and thereby limit BBB penetration.

[12] = system: MCF10A-5E cells; experiment: Multiacini formation in 3D culture of MCF10A-5E cells; assay type: cell-based; details: shRUNX1 or control cells, 3D culture 10-11 days, compared to carrier control or Al-4-88
From the text: CBFβ inhibitors altered acinar morphogenesis of the basal-like (triple negative) breast epithelial cells and blocked survival of basal-like breast cancer cells in 3D organotypic culture. To evaluate whether CBFβ inhibition would influence the multicellular organization of basal-like breast epithelia, 3D culture of MCF10A-5E cells was used. Knockdown of RUNX1 in these cells delayed proliferation arrest and promoted the formation of nonspherical acini, indicating a role for RUNX1 during morphogenesis.
The multiacini resulting from CBFβ inhibition were not radially symmetric, thereby arguing against a general defect in cell polarity or proliferation arrest. Instead, the inhibitors appeared to be initiating a nascent branching program that is reminiscent of when TGFβ-family signaling is impaired.
FIG. 9A: MCF10A-5E cells stably expressing shRUNX1 or shGFP control were grown in 3D culture for 10-11 days with the indicated compounds and imaged by Brightfield microscopy. The total number of multiacini per chamber was counted and scaled to the shGFP DMSO control. Data are shown as the mean±SEM of eight independent cultures.

[13] = aqueous, 0.25% DMSO, NMR spectroscopy, read-out: aqueous solubility

binding of CBFβ to RUNX1 in SEM cells, sequence (Q13951 whole entry): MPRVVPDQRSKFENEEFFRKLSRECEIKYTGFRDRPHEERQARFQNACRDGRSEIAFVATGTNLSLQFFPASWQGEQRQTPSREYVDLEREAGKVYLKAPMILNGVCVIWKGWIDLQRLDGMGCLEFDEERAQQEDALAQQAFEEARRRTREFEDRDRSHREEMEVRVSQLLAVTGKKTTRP
CBFβ binding to the RUNX1 Runt domain, sequence (Q13951 1-141): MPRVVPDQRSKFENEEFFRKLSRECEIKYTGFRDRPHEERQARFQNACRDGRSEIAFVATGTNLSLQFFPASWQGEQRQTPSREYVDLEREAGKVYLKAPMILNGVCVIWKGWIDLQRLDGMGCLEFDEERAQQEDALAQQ

SMILES: COc1ccc2[nH]c(-c3ccccn3)nc2c1 [Al-4-57]
IC50 [1]: 34 µM | percent viability (DAPI negative cells relative to DMSO) [2]: only very weak activity | IC50 [3]: 22 µM | half-life in mice [4]: short half-life

SMILES: c1ccc(-c2nc3ccccc3[nH]2)nc1 [Al-4-88, reference compound]
percent viability (DAPI negative cells relative to DMSO) [2]: No activity | proliferation [5]: did not have such an effect | cell growth (MTT assay) [6]: no effect | cell growth (MTT assay) [7]: no effect

SMILES: FC(F)(F)Oc1ccc2[nH]c(-c3ccccn3)nc2c1 [Al-10-47]
IC50 [1]: 3.19 ± 0.5 µM | RUNX1-bound CBFβ (co-immunoprecipitation) [8]: only a modest effect | solubility [9]: 0.44 µM (≈ 0.123 µg/mL) | percent viability (DAPI negative cells relative to DMSO) [2]: significant inhibition of the majority of the cell lines | cell death [10]: induced cell death

SMILES: COc1cnc(-c2nc3cc(OC(F)(F)F)ccc3[nH]2)c(OC)c1 [Al-12-16]
IC50 [1]: 1.69 ± 0.18 µM

SMILES: FC(F)(F)Oc1ccc2[nH]c(-c3ccc(OCCN4CCOCC4)cn3)nc2c1 [Al-12-126]
IC50 [1]: 8.91 ± 1.3 µM | RUNX1-bound CBFβ (co-immunoprecipitation) [8]: reduction in binding | solubility [9, 13]: > 100 µM | sedative effects [11]: did not induce the sedative effects | tolerability [11]: well-tolerated

SMILES: O=C(O)c1cccnc1-c1nc2cc(OC(F)(F)F)ccc2[nH]1 [Al-12-150]
IC50 [1]: 48.9 ± 1.6 µM

SMILES: CN(C)c1cccnc1-c1nc2cc(OC(F)(F)F)ccc2[nH]1 [Al-14-18]
IC50 [1]: 4.97 ± 0.27 µM

SMILES: FC(F)(F)Oc1ccc2[nH]c(-c3ncccc3OCCN3CCOCC3)nc2c1 [Al-14-55]
IC50 [1]: 4.83 ± 0.32 µM

SMILES: COc1ccnc(-c2nc3cc(OC(F)(F)F)ccc3[nH]2)c1OC [Al-14-72]
IC50 [1]: 1.72 ± 0.23 µM

SMILES: COc1cc(OCCN2CCOCC2)cnc1-c1nc2cc(OC(F)(F)F)ccc2[nH]1 [Al-14-91]
IC50 [1]: 2.97 ± 0.53 µM | RUNX1-bound CBFβ (co-immunoprecipitation) [8]: reduction in binding | solubility [9, 13]: > 100 µM | sedative effects [11]: did not induce the sedative effects | tolerability [11]: well-tolerated | percent viability (DAPI negative cells relative to DMSO) [2]: significant inhibition of the majority of the cell lines | formation of multiacinar structures [12]: dramatic increase

Other lines, results leading:

activity in FRET assay (structure-activity relationship, in words) [1]: complete loss of activity
SMILES: COc1ccc2[nH]c(-c3ccccc3)nc2c1 [Compound 2a, 5-methoxy-2-phenyl-1H-benzo[d]imidazole]

activity in FRET assay (structure-activity relationship, in words) [1]: complete loss of activity
SMILES: COc1ccc2[nH]c(-c3ccco3)nc2c1 [Compound 2b, 2-(furan-2-yl)-5-methoxy-1H-benzo[d]imidazole]

activity in FRET assay (structure-activity relationship, in words) [1]: complete loss of activity
SMILES: c1ccc(-c2nc3ccccc3[nH]2)nc1 [Compound 3a, 2-(pyridin-2-yl)-1H-benzo[d]imidazole]

IC50 [1]: ≥ 34.3 µM
SMILES: CCOc1ccc2[nH]c(-c3ccccn3)nc2c1 [Compound 3b, 5-ethoxy-2-(pyridin-2-yl)-1H-benzo[d]imidazole]

IC50 [1]: ≥ 34.3 µM
SMILES: Fc1ccc2[nH]c(-c3ccccn3)nc2c1 [Compound 3c, 5-fluoro-2-(pyridin-2-yl)-1H-benzo[d]imidazole]

activity in FRET assay (structure-activity relationship, in words) [1]: loss of activity
SMILES: Cc1ccc2[nH]c(-c3ccccn3)nc2c1 [Compound 3d, 5-methyl-2-(pyridin-2-yl)-1H-benzo[d]imidazole]

activity in FRET assay (structure-activity relationship, in words) [1]: loss of activity
SMILES: FC(F)(F)c1ccc2[nH]c(-c3ccccn3)nc2c1 [Compound 3f, 2-(pyridin-2-yl)-5-(trifluoromethyl)-1H-benzo[d]imidazole]

IC50 [1]: ≥ 34.3 µM | activity in FRET assay (structure-activity relationship, in words) [1]: reduced activity
SMILES: COc1cccc2[nH]c(-c3ccccn3)nc12 [Compound 4a, 4-methoxy-2-(pyridin-2-yl)-1H-benzo[d]imidazole]

activity in FRET assay (structure-activity relationship, in words) [1]: inactive
SMILES: COc1ccc2[nH]c(-c3cccc(OC)n3)nc2c1 [Compound 4g, 5-methoxy-2-(6-methoxypyridin-2-yl)-1H-benzo[d]imidazole]

activity in FRET assay (structure-activity relationship, in words) [1]: inactive
SMILES: COc1ccc2[nH]c(-c3cccc(C)n3)nc2c1 [Compound 4h, 5-methoxy-2-(6-methylpyridin-2-yl)-1H-benzo[d]imidazole]
